# Results reported in US7883687B2, “15O-labeled monosaccharide and producing method thereof” (Astellas Pharma Inc., priority 2004, dated 2011).
# Test: PET imaging in rat (Planar Positron Imaging System)
# Settings: injected from tail vein, integrated PET image from 15 min to 30 min after administration (FIG. 4A, 4B)
# Method: Hydroxylation of 2,6-dideoxy-6-iodo-D-glucose and 6-iodo-6-deoxy-D-glucose was performed in the glass filter reactor as shown in FIG. 1. Sep-Pak cartridges were purchased from Waters. The cyclotron is OSCAR-12 (NKK/Oxford). The target gas consisted of 1.5% O2 in ^15N2. PET scans were obtained on Planar Positron Imaging System (Hamamatsu Photonics K.K.).
# A solution of 2,6-dideoxy-6-iodo-D-glucose (274 mg, 1.0 mmol), tributyltin hydride (807 μl, 3.0 mmol) and AIBN (4.0 mg, 0.025 mmol) in PhCF3 (20.0 ml)/C10F18 (4.5 ml)/2-BuOH (3.0 ml) was placed in the reactor, which was on the automated synthetic apparatus (FIG. 3). Proton bombardment (beam current 50 μA) on target gas started (N2/O2=98.5/1.5, target gas pressure=6 kg/cm^2). The beginning of the bombardment was defined as 0 sec for convenience. Cold gas (N2/O2=[…], 180 ml/min) was provided and heating with temperature-controlled air (80° C.) started simultaneously at 2 min 40 sec. At 4.0 min, the target gas was evacuated from the targeting area in the cyclotron system (20 ml/min). The target gas was mixed with cold N2/O2 gas (target gas/N2/O2=20/177/3, 200 ml/min), and the resulting gas was then supplied to the reaction vessel. […] At 5 min 20 sec, the bombardment stopped. However, evacuation of the target gas continued. Triphenylphosphine (262 mg, 1.0 mmol in 1.5 ml of PhCF3) was added at 6.0 min. […]
compound,measurement,value
"O=CCC(O)C(O)C(O)C[15OH] [[^15O]2-DG, ^15[O]2-deoxy-D-glucose]",accumulation of tracer in integrated PET image,"accumulation of [^15O]2-DG in heart, kidney and bladder"
